Columns and labels:
[1] = target: T1, recombinant guanylate cyclase reporter cell line (Rattus norvegicus, UniProt P19686+P20595); assay: Action on recombinant guanylate cyclase reporter cell line; format: cell-based
T1 construct: expressed in transfected cells
T1 sequence (P20595 1-619): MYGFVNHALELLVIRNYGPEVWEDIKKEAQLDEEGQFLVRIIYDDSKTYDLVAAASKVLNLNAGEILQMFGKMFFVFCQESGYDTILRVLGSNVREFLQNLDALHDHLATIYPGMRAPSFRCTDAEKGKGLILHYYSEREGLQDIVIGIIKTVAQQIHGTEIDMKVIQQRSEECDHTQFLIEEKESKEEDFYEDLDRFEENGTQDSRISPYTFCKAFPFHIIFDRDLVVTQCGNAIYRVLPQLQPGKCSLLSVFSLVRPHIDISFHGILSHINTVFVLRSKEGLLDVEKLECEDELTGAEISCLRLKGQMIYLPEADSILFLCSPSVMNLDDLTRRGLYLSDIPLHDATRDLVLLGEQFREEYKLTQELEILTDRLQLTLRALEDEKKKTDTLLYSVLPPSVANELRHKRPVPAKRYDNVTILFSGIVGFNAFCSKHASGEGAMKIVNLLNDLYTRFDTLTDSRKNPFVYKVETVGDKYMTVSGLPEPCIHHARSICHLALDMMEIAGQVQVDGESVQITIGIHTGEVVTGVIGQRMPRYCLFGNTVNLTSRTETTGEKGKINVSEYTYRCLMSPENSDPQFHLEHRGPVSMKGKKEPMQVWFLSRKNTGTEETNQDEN
T1 sequence (P19686 1-690): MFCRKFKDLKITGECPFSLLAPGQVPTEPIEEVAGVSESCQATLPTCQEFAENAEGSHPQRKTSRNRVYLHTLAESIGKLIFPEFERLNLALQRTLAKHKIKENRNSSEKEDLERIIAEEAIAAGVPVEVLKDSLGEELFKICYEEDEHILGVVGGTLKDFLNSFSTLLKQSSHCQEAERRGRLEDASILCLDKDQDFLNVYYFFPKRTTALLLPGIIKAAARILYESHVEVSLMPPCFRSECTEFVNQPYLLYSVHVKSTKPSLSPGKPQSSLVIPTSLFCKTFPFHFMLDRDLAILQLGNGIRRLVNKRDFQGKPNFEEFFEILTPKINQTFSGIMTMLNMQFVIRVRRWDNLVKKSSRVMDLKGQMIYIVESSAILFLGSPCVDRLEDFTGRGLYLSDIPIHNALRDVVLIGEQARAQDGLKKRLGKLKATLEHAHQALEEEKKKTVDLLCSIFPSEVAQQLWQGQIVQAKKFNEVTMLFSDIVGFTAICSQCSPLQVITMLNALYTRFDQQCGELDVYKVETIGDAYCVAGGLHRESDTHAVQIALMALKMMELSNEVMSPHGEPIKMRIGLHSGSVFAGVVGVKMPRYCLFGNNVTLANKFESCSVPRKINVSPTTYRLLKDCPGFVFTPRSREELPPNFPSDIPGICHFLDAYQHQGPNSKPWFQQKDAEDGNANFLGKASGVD
Method: B-2. Action on Recombinant Guanylate Cyclase Reporter Cell Line
The cellular action of the compounds according to the invention is determined on a recombinant guanylate cyclase reporter cell line, as described in F. Wunder et al., Anal. Biochem. 339, 104-112 (2005).

[2] = target: T2, human phosphodiesterase 5 (PDE-5) (Homo sapiens, UniProt O76074); assay: Inhibition of human phosphodiesterase 5 (PDE-5), SPA assay; format: biochemical; details: PDE-5 preparation from human platelets, [8-3H]cGMP substrate
T2 construct: PDE-5 preparations are obtained from human platelets by lysis; from tissue; host or cells: human platelets
Method: B-6. Inhibition of Human Phosphodiesterase 5 (PDE-5)
PDE-5 preparations are obtained from human platelets by lysis (Microfluidizer®, 800 bar, 3 passages), followed by centrifugation (75000 g, 60 min, 4° C.) and ion-exchange chromatography of the supernatant on a Mono Q 10/10 column (linear sodium chloride gradient, elution with a 0.2-0.3M solution of sodium chloride in buffer (20 mM Hepes pH 7.2, 2 mM magnesium chloride). Fractions that have PDE-5 activity are combined (PDE-5 preparation) and stored at −80° C.
For determining their in-vitro action on human PDE-5, the test substances are dissolved in 100% DMSO and serial dilutions are prepared. Typically, dilution series (1:3) from 200 μM to 0.091 μM are prepared (resultant final concentrations in the test: 4 μM to 0.0018 μM). In each case 2 μL of the diluted solutions of the substance are put in the wells of microtitre plates (Isoplate-96/200W; Perkin-Elmer). Then 50 μL of a dilution of the PDE-5 preparation described above is added. The dilution of the PDE-5 preparation is selected so that during subsequent incubation less than 70% of the substrate is reacted (typical dilution: 1:100; dilution buffer: 50 mM Tris/hydrochloric acid pH 7.5, 8.3 mM magnesium chloride, 1.7 mM EDTA, 0.2% BSA). The substrate [8-^3H]cyclic guanosine-3′,5′-monophosphate (1 μCi/μL; Perkin-Elmer) is diluted 1:2000 with assay buffer (50 mM Tris/hydrochloric acid pH 7.5, 8.3 mM magnesium chloride, 1.7 mM EDTA) to a concentration of 0.0005 μCi/μL. The enzyme reaction is finally started by adding 50 μL (0.025 μCi) of the diluted substrate. The test preparations are incubated for 60 min at room temperature and the reaction is stopped by adding 25 μL of a suspension of 18 mg/mL of Yttrium Scintillation Proximity Beads in water (phosphodiesterase beads for SPA assays, RPNQ 0150, Perkin-Elmer). The microtitre plates are sealed with film and left to stand for 60 min at room temperature. Then the plates are measured for 30 s per well in a Microbeta scintillation counter (Perkin-Elmer). IC50 values are determined on the basis of the graphs plotted of the substance concentration versus the percentage PDE-5 inhibition.

Structure (SMILES)	MEC (minimal effective concentration) [1] [μm]	IC50 [2] [nM]
CCOCCCNc1nc(-c2nn(Cc3ccccc3F)c3ncccc23)nc2c1C(C)(C)C(=O)N2 [Example 71, 4-[(3-ethoxypropyl)amino]-2-[1-(2-fluorobenzyl)-1H-pyrazolo[3,4-b]pyridin-3-yl]-5,5-dimethyl-5,7-dihydro-6H-pyrrolo[2,3-d]pyrimidin-6-one]	0.01	42
CCOC(=O)C1(C)C(=O)Nc2nc(-c3nn(Cc4ccccc4F)c4ncccc34)nc(O)c21 (centres unmarked) [Example 101, Ethyl-2-[1-(2-fluorobenzyl)-1H-pyrazolo[3,4-b]pyridin-3-yl]-4-hydroxy-5-methyl-6-oxo-6,7-dihydro-5H-pyrrolo[2,3-d]pyrimidine-5-carboxylate]		870
CC1(C)C(=O)Nc2nc(-c3nn(Cc4ccccc4F)c4ncccc34)nc(N3CCC(O)CC3)c21 [Example 52, 2-[1-(2-fluorobenzyl)-1H-pyrazolo[3,4-b]pyridin-3-yl]-4-(4-hydroxypiperidin-1-yl)-5,5-dimethyl-5,7-dihydro-6H-pyrrolo[2,3-d]pyrimidin-6-one]	0.01	34
CC1(C)C(=O)Nc2nc(-c3nn(Cc4ccccc4F)c4ncccc34)nc(N[C@@H]3CCCNC3=O)c21 [Example 81, 2-[1-(2-fluorobenzyl)-1H-pyrazolo[3,4-b]pyridin-3-yl]-5,5-dimethyl-4-[(2-oxopiperidin-3-yl)amino]-5,7-dihydro-6H-pyrrolo[2,3-d]pyrimidin-6-one]	0.03	290
CC1(C)C(=O)Nc2nc(-c3nn(Cc4ccccc4F)c4ncccc34)nc(NCC3CCCC3)c21 [Example 80, 4-[(cyclopentylmethyl)amino]-2-[1-(2-fluorobenzyl)-1H-pyrazolo[3,4-b]pyridin-3-yl]-5,5-dimethyl-5,7-dihydro-6H-pyrrolo[2,3-d]pyrimidin-6-one]	0.03	
CC1(C)C(=O)Nc2nc(-c3nn(Cc4ccccc4F)c4ncccc34)nc(N3CCNC(=O)C3)c21 [Example 82, 2-[1-(2-fluorobenzyl)-1H-pyrazolo[3,4-b]pyridin-3-yl]-5,5-dimethyl-4-(3-oxopiperazin-1-yl)-5,7-dihydro-6H-pyrrolo[2,3-d]pyrimidin-6-one]	0.1	
CC1(C)C(=O)Nc2nc(-c3nn(Cc4ccccc4F)c4ncccc34)nc(N3CCCCC3)c21 [Example 54, 2-[1-(2-fluorobenzyl)-1H-pyrazolo[3,4-b]pyridin-3-yl]-5,5-dimethyl-4-(piperidin-1-yl)-5,7-dihydro-6H-pyrrolo[2,3-d]pyrimidin-6-one]	0.03	

Next, values leading:

MEC (minimal effective concentration) [1] [μm]	IC50 [2] [nM]	Structure (SMILES)
0.03	210	CC1(C)C(=O)Nc2nc(-c3nn(Cc4ccccc4F)c4ncccc34)nc(Nc3ccccc3)c21 [Example 87, 2-[1-(2-fluorobenzyl)-1H-pyrazolo[3,4-b]pyridin-3-yl]-5,5-dimethyl-4-(phenylamino)-5,7-dihydro-6H-pyrrolo[2,3-d]pyrimidin-6-one]
0.3	430	Cn1ccnc1CNc1nc(-c2nn(Cc3ccccc3F)c3ncccc23)nc2c1C(C)(C)C(=O)N2 [Example 60, 2-[1-(2-fluorobenzyl)-1H-pyrazolo[3,4-b]pyridin-3-yl]-5,5-dimethyl-4-{[(1-methyl-1H-imidazol-2-yl)methyl]amino}-5,7-dihydro-6H-pyrrolo[2,3-d]pyrimidin-6-one]
0.03	330	CC1(C)C(=O)Nc2nc(-c3nn(Cc4ccccc4F)c4ncccc34)nc(NCc3cccc(F)c3)c21 [Example 78, 4-[(3-fluorobenzyl)amino]-2-[1-(2-fluorobenzyl)-1H-pyrazolo[3,4-b]pyridin-3-yl]-5,5-dimethyl-5,7-dihydro-6H-pyrrolo[2,3-d]pyrimidin-6-one]
0.03	270	CC1(C)C(=O)Nc2nc(-c3nn(Cc4ccccc4F)c4ncccc34)nc(NCCn3cccn3)c21 [Example 58, 2-[1-(2-fluorobenzyl)-1H-pyrazolo[3,4-b]pyridin-3-yl]-5,5-dimethyl-4-{[2-(1H-pyrazol-1-yl)ethyl]amino}-5,7-dihydro-6H-pyrrolo[2,3-d]pyrimidin-6-one]
0.1		CC1(C)C(=O)Nc2nc(-c3nn(Cc4ccccc4F)c4ncccc34)nc(NCc3ccc(F)cc3)c21 [Example 77, 4-[(4-fluorobenzyl)amino]-2-[1-(2-fluorobenzyl)-1H-pyrazolo[3,4-b]pyridin-3-yl]-5,5-dimethyl-5,7-dihydro-6H-pyrrolo[2,3-d]pyrimidin-6-one]
0.1		C[C@H](Nc1nc(-c2nn(Cc3ccccc3F)c3ncccc23)nc2c1C(C)(C)C(=O)N2)C(N)=O [Example 79, N2-{2-[1-(2-fluorobenzyl)-1H-pyrazolo[3,4-b]pyridin-3-yl]-5,5-dimethyl-6-oxo-6,7-dihydro-5H-pyrrolo[2,3-d]pyrimidin-4-yl}-L-alaninamide]
	16	C[C@@H](O)CNc1nc(-c2nn(Cc3ccccc3F)c3ncccc23)nc2c1C(C)(C)C(=O)N2 [Example 57, 2-[1-(2-fluorobenzyl)-1H-pyrazolo[3,4-b]pyridin-3-yl]-4-[(2-hydroxypropyl)amino]-5,5-dimethyl-5,7-dihydro-6H-pyrrolo[2,3-d]pyrimidin-6-one]
0.3		CC1(C)C(=O)Nc2nc(-c3nn(Cc4ccccc4F)c4ncccc34)nc(NC3CCOC3)c21 (racemic) [Example 49, 2-[1-(2-fluorobenzyl)-1H-pyrazolo[3,4-b]pyridin-3-yl]-5,5-dimethyl-4-(tetrahydrofuran-3-ylamino)-5,7-dihydro-6H-pyrrolo[2,3-d]pyrimidin-6-one]
0.03		CC1(CNc2nc(-c3nn(Cc4ccccc4F)c4ncccc34)nc3c2C(C)(C)C(=O)N3)COC1 [Example 67, 2-[1-(2-fluorobenzyl)-1H-pyrazolo[3,4-b]pyridin-3-yl]-5,5-dimethyl-4-{[(3-methyloxetan-3-yl)methyl]amino}-5,7-dihydro-6H-pyrrolo[2,3-d]pyrimidin-6-one]

Source: patent US8859569B2, “Substituted annellated pyrimidines and use thereof” (Bayer Pharma Aktiengesellschaft, priority 2011, dated 2014)
